How the values were obtained:
HT-29 = assay: Sulforhodamine B assay (cell proliferation); assay type: cell-based; details: Homo sapiens, SRB assay, 72 h, mean ± SD
Experimental: (§1) Colorectal cell line, HCT-116, was purchased from the Bioresource Collection and Research Centre (BCRC, Hsinchu, Taiwan), while HT-29 was obtained from the American Type Culture Collection (ATCC, Manassas, VA, USA). Both cell lines were maintained in McCoy’s 5 A medium (with L-glutamine and 2.2 g/L NaHCO3, M4892, Sigma) supplemented with 10% foetal bovine serum (Corning Incorporated, NY, USA) and 1% penicillin–streptomycin–amphotericin B (100 unit/ml penicillin G, 0.1 mg/ml streptomycin sulphate, 0.25 μg/ml amphotericin B, Corning Incorporated, NY, USA). All cultures were maintained in a humidified incubator at 37 °C with 5% CO2.
(§2) Cells were seeded in 96-well plates at a density of 3 × 10^3 cells/well in 100 μl of culture medium and treated with compounds at the indicated concentrations for 72 h. After treatment, cells were fixed with 10% trichloroacetic acid for 20 min and washed with H2O. The cells were then stained with 0.4% sulforhodamine B (SRB) in 1% acetic acid for 20 min, followed by two washes with 1% acetic acid. After the well-dried, the protein-bound dye was dissolved in 100 µl of 10 mM Tris base solution, and the absorbance was measured at 515 nm using an ELISA reader (Molecular Device, Sunnyvale, CA, USA).

HCT-116 = assay: Sulforhodamine B assay (cell proliferation); assay type: cell-based; details: Homo sapiens, SRB assay, 72 h, mean ± SD
Experimental: as §1, §2

- GI50 (HT-29): 10.4 ± 0.6 µM
- GI50 (HCT-116): 14.7 ± 0.8 µM
SMILES: O=C(/C=C/c1ccc(O)c(O)c1)CCCCn1ccc2c(O)cccc21 [Compound 13a, (E)-1-(3,4-dihydroxyphenyl)-7-(4-hydroxy-1H-indol-1-yl)hept-1-en-3-one]

From PMC12624955, “Exploring diarylheptanoid derivatives to target LIMK1 as potential agents against colorectal cancer” (Journal of Enzyme Inhibition and Medicinal Chemistry, 2025)
